Measured values taken from patent US20240140991A1, “ANTIBIOTIC NATURAL PRODUCT ANALOGUES” (THE QUEEN'S UNIVERSITY OF BELFAST, priority 2021, published 2024).
≈ marks a conversion by molar mass, not a printed value. Positions of bridges follow the written chain, without caps; N, C: chain ends. Non-standard residues stand in square brackets, D forms with d. Residues, ends and D or L forms follow the SMILES beside them. ξ: configuration not given here. *: point of attachment. Octanoyl(7-Me) = CC(C)CCCCCC(=O)*; Hexanoyl(4ξ-Me) = CCC(C)CCC(=O)*; dOrn = NCCC[C@@H](N)C(=O)O; Orn = NCCC[C@H](N)C(=O)O; Dap = NC[C@H](N)C(=O)O

Experiments:
[1] = tested on: P. aeruginosa M-120; type: cell-based, Pseudomonas aeruginosa; conditions: M-120
Protocol: (§1) Minimum inhibitory concentration (MIC) was determined by broth microdilution according to CLSI guidelines. Blood agar plates were inoculated with glycerol stocks of Escherichia coli ATCC 25922, E. coli ATCC 25922 MCR-1, E. coli MCR-1 (clinical isolate from Utrecht Medical Center, NL), E. coli EQAS MCR-2 (clinical isolate from Wageningen University and Research, NL), Kiebsielia pneumoniae ATCC 11228, K. pneumoniae ATCC 13883, K. pneumonia 2048 (clinical isolate from Vrije Universiteit Amsterdam Medical Center, NL), K. pneumonia JS-123 (clinical isolate from Utrecht Medical Center, NL), Acinetobacter baumannii ATCC 17961, A. baumannil ATCC 17978, A. baumannii 2018-006 (clinical isolate from Rijksinstituut voor Volksgezondheid en Milieu, NL), A. baumannii MDR (clinical isolate from Vrije Universiteit Amsterdam Medical Center, NL), Pseudomonas aeruginosa ATCC 27853, P. aeruginosa PAO1, P. aeruginosa NRZ-03961 (Reference strain from Das Nationale Referenzzentrum für gramnegative Krankenhauserreger, DE), P. aeruginosa M-120 (clinical isolate from Leiden University Medical Center, NL) and Staphylococcus aureus USA300 (clinical isolate from Texas Children's Hospitalm, USA). E. coli 25922 MCR1 was grown on LB agar supplemented with kanamycin. The inoculated agar plates were then incubated for 16 hours at 37° C. Individually grown colonies were subsequently used to inoculate 3 mL aliquots of TSB that were then incubated at 37° C. with shaking at 220 rpm. In parallel, the compounds to be assessed were serially diluted with Mueller-Hinton broth (MHB) in polypropylene 96-well plates (50 μL in each well). Once the OD600 of the bacterial suspensions reached 0.5, the bacteria were diluted with MHB (final concentration 2×10^5 CFU mL^−1) and added to the microplates containing the test compounds (50 μL to each well, final volume: 100 μL). The well-plates were sealed with an adhesive membrane and after 16 hours of incubation at 37° C. with shaking at 220 rpm the wells were visually inspected for bacterial growth. MIC values were defined as the lowest concentration of the compound that prevented visible growth of bacteria.

[2] = tested on: P. aeruginosa PAO1; type: cell-based, Pseudomonas aeruginosa; conditions: PAO1
Protocol: as §1

[3] = tested on: P. aeruginosa NRZ-03961; type: cell-based, Pseudomonas aeruginosa; conditions: NRZ-03961
Protocol: as §1

[4] = tested on: K. pneumoniae 2048; type: cell-based, Klebsiella pneumoniae; conditions: 2048
Protocol: as §1

[5] = tested on: K. pneumoniae JS-123; type: cell-based, Klebsiella pneumoniae; conditions: JS-123
Protocol: as §1

[6] = tested on: K. pneumoniae ATCC 11228; type: cell-based, Klebsiella pneumoniae; conditions: ATCC 11228
Protocol: as §1

[7] = tested on: K. pneumoniae ATCC 13883; type: cell-based, Klebsiella pneumoniae; conditions: ATCC 13883
Protocol: as §1

[8] = tested on: Pseudomonas aeruginosa ATCC 27853; type: cell-based; conditions: ATCC 27853
Procedure, shortened: (§2)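 Broth microdilution in MHB per CLSI; inoculum 2×10^5 CFU mL^−1 from log-phase TSB cultures at OD600 0.5. Plates incubated 16 hours at 37° C with shaking at 220 rpm. MIC is the lowest concentration preventing visible growth.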

[9] = tested on: Staphylococcus aureus USA300; type: cell-based; conditions: USA300
Procedure, shortened: as §2

[10] = tested on: Escherichia coli ATCC 25922; type: cell-based; conditions: ATCC 25922
Procedure, shortened: as §2

[11] = tested on: Acinetobacter baumannii ATCC 17961; type: cell-based; conditions: ATCC 17961
Procedure, shortened: as §2

[12] = tested on: A. baumannii 2018-006; type: cell-based, Acinetobacter baumannii; conditions: 2018-006
Protocol: as §1

[13] = tested on: A. baumannii ATCC 17978; type: cell-based, Acinetobacter baumannii; conditions: ATCC 17978
Protocol: as §1

[14] = tested on: E. coli ATCC 25922 MCR-1; type: cell-based, Escherichia coli; conditions: E. coli ATCC 25922 MCR-1 (colistin resistant)
Protocol: as §1
(§3) In the table above, “MCR” denotes that one of the MCR family of genes, which confers colistin resistance, is present in the bacterial strain. Thus, E. coli ATCC 25922 MCR-1, E. coli MCR-1 and E. coli EQAS MCR-2 are each colistin resistant. […] Therefore, laterocidamide may overcome some of the challenges faced due to antibiotic resistance.

[15] = tested on: E. coli EQAS MCR-2; type: cell-based, Escherichia coli; conditions: E. coli EQAS MCR-2 clinical isolate (colistin resistant)
Protocol: as §1, §3

[16] = tested on: E. coli MCR-1; type: cell-based, Escherichia coli; conditions: E. coli MCR-1 clinical isolate (colistin resistant)
Protocol: as §1, §3

[17] = tested on: A. baumannii MDR; type: cell-based, Acinetobacter baumannii; conditions: A. baumannii MDR clinical isolate
Protocol: as §1

[18] = tested on: HepG2 cells; test: Cytotoxicity MTT assay; conditions: HepG2, 128 μg/mL, 24 h
Protocol: In addition to a single vehicle control, compounds (diluted from DMSO stock) were added to each well to obtain in a final 128 μg/mL concentration (max. final DMSO concentration 0.5%) for all compounds except for oritavancin which was administered at 50 μM. Incubation was done for 24 h at 37° C., 7% CO2. After the incubation, MTT was added to each well at a final concentration of 0.40 mg/mL. The plates were then incubated for 2 h at 37° C., 7% CO2. Medium was carefully removed via suction, and purple formazan crystals were resuspended in 100 μL DMSO. Absorbance was read at 570 nm using a Clariostar plate reader. The data was then analysed with GraphPad Prism software. Technical triplicates for each condition were used, along with biological duplicates.

`CCC(C)CCC(=O)N[C@H](CO)C(=O)N[C@H](Cc1ccc(O)cc1)C(=O)N[C@H](Cc1c[nH]c2ccccc12)C(=O)N[C@H](CCCN)C(=O)N[C@@H](CCCN)C(=O)NCC(=O)N[C@H](CCCN)C(=O)N[C@@H](Cc1c[nH]c2ccccc12)C(=O)N[C@H]1CNC(=O)CNC(=O)[C@H](CO)NC(=O)CNC(=O)[C@H]([C@@H](C)CC)NC1=O` (stereo partly drawn) [Dap9-Relacidamide A] ({Hexanoyl(4ξ-Me)}-[dS][dY][dW][dOrn][Orn]G[dOrn]W[Dap]IGSG; lactam 9-C) was tested, and the “Minimum inhibitory concentration (MIC)” value [1] was 1 to 2 µg/mL, the “Minimum inhibitory concentration (MIC)” value [2] was 1 to 2 µg/mL and the “Minimum inhibitory concentration (MIC)” value [3] was 2 to 4 µg/mL. For the same compound, the “Minimum inhibitory concentration (MIC)” value [4] was 2 µg/mL (≈ 1.3 µM), the “Minimum inhibitory concentration (MIC)” value [5] was 1 µg/mL (≈ 0.652 µM) and the “Minimum inhibitory concentration (MIC)” value [6] was 2 µg/mL (≈ 1.3 µM). For the same compound, the “Minimum inhibitory concentration (MIC)” value [7] was 2 µg/mL (≈ 1.3 µM), the “Minimum inhibitory concentration (MIC)” value [8] was 0.5 to 1 µg/mL and the “Minimum inhibitory concentration (MIC)” value [9] was over 64 µg/mL. The “Minimum inhibitory concentration (MIC)” value [10] was 2 µg/mL (≈ 1.3 µM), the “Minimum inhibitory concentration (MIC)” value [11] was 1 to 2 µg/mL and the “Minimum inhibitory concentration (MIC)” value [12] was 2 to 4 µg/mL. The “Minimum inhibitory concentration (MIC)” value [13] was 4 µg/mL (≈ 2.61 µM).
In the case of `CC[C@@H](C)[C@H]1NC(=O)[C@H](NC(=O)[C@@H](Cc2c[nH]c3ccccc23)NC(=O)[C@H](CCCN)NC(=O)CNC(=O)[C@@H](CCCN)NC(=O)[C@H](CCCN)NC(=O)[C@H](Cc2c[nH]c3ccccc23)NC(=O)[C@H](Cc2ccc(O)cc2)NC(=O)[C@H](CO)NC(=O)CCCCCC(C)C)[C@H](C)OC(=O)CNC(=O)CNC(=O)[C@@H](CC(N)=O)NC1=O` [ent- Laterocidine] ({Octanoyl(7-Me)}-SYW[Orn][dOrn]G[Orn][dW][dT][dI][dN]GG; ester 9-C), the “Minimum inhibitory concentration (MIC)” value [14] is reported as 8 to 16 µg/mL, the “Minimum inhibitory concentration (MIC)” value [15] is reported as 8 to 16 µg/mL and the “Minimum inhibitory concentration (MIC)” value [16] is reported as 8 to 16 µg/mL. For the same compound, the “Minimum inhibitory concentration (MIC)” value [17] was 4 to 8 µg/mL.
With `CCC(C)CCC(=O)N[C@H](CC(N)=O)C(=O)N[C@H](Cc1ccc(O)cc1)C(=O)N[C@H](Cc1c[nH]c2ccccc12)C(=O)N[C@H](CCCN)C(=O)N[C@@H](CCCN)C(=O)NCC(=O)N[C@H](CCCN)C(=O)N[C@@H](Cc1c[nH]c2ccccc12)C(=O)N[C@@H]1C(=O)N[C@@H]([C@@H](C)CC)C(=O)NCC(=O)N[C@@H](CO)C(=O)O[C@@H]1C` (stereo partly drawn) [Brevicidine, brevicidine, reference compound] ({Hexanoyl(4ξ-Me)}-[dN][dY][dW][dOrn][Orn]G[dOrn]WTIGS; ester 9-C) the “cytotoxicity / cell viability” value [18] was “completely non-toxic”.
